COc1ccc2[nH]cc(CCNC(C)=O)c2c1
solubility (mole fraction)
Details	278.15 K	283.15 K	288.15 K	293.15 K	298.15 K	303.15 K	308.15 K	313.15 K	318.15 K	323.15 K
in ethanol	0.00853	0.0113	0.0151	0.02	0.0254	0.032	0.0406	0.0527	0.0665	0.0844
in isobutanol	0.00406	0.00538	0.0073	0.00972	0.0127	0.0167	0.0212	0.0276	0.0352	0.0441
in methanol	0.0116	0.0158	0.0211	0.0282	0.0357	0.0462	0.0594	0.0757	0.0963	0.122
in methyl acetate	0.00303	0.00406	0.00531	0.00688	0.0085	0.0112	0.0144	0.0191	0.0244	0.0306
in n-butanol	0.00518	0.00676	0.009	0.0118	0.0152	0.0199	0.0257	0.0328	0.0425	0.0536
in n-hexanol	0.0038	0.00497	0.00679	0.00872	0.0114	0.0146	0.019	0.0244	0.0308	0.0393
in n-pentanol	0.00515	0.00671	0.00889	0.0114	0.0145	0.0184	0.0233	0.0291	0.0365	0.0444
in n-propanol	0.00602	0.00792	0.0108	0.0147	0.0197	0.0254	0.0329	0.0418	0.0538	0.0701

— BigSolDB 2.1
